Here are results for one compound from publication PMC11004395 (Saudi Pharmaceutical Journal : SPJ, 2024).

Structures are written as SMILES.

In this assay the target is bovine xanthine oxidase (BXO) (Bos taurus, UniProt P80457). In words: XO inhibitory assay, double enzyme detection. Format: biochemical. The note with it: read-out: IC50 of moderately active compounds, moderate activities (Fig. 6).
Chain of bovine xanthine oxidase (BXO) (P80457 whole entry): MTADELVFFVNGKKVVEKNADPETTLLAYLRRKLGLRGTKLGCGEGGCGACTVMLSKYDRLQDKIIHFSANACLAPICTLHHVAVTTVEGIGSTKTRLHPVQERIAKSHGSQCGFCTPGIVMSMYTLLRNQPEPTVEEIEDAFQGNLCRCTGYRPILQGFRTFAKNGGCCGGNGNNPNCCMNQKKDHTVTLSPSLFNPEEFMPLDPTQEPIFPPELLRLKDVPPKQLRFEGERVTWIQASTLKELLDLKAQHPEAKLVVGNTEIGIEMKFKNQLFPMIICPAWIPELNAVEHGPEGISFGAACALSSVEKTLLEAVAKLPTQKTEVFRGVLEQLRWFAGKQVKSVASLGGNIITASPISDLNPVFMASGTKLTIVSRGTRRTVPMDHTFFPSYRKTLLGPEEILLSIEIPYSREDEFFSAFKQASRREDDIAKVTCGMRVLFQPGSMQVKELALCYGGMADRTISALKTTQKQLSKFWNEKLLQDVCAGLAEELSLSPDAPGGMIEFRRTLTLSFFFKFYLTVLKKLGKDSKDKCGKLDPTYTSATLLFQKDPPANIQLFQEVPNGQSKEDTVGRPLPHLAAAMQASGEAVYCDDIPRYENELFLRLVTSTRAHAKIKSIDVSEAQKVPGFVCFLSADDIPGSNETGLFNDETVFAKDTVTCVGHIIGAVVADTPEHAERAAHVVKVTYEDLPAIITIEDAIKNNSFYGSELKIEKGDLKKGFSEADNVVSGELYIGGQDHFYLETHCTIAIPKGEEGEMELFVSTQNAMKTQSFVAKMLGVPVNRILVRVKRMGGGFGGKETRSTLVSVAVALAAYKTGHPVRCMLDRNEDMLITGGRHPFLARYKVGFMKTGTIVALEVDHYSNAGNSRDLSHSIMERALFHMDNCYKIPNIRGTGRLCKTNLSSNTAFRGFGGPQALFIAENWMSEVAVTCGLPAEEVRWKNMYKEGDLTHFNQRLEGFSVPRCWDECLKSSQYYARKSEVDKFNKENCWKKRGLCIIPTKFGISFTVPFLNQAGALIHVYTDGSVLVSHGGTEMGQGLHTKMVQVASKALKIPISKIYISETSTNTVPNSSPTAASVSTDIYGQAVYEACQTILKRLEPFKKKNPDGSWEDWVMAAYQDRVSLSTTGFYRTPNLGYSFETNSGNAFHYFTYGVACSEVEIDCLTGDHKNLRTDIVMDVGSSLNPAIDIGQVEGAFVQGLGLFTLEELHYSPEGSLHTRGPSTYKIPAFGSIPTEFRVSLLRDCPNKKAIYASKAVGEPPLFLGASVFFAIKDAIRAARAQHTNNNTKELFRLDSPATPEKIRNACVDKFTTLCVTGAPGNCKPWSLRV

As to `O=[N+]([O-])c1ccc(C=Nn2c(Cn3nnc4ccccc43)n[nH]c2=S)cc1` [Compound 8, 3-((1H-Benzo[d][1,2,3]triazol-1-yl)methyl)-4-((4-nitrobenzylidene)amino)-1H-1,2,4-triazole-5(4H)-thione], the IC50 is not above 263 µM.

One may read the IC50 as the point on the concentration scale where inhibition reaches its midpoint.
